Results taken from paper PMC6792352, “Limited Chemical Structural Diversity Found to Modulate Thyroid Hormone Receptor in the Tox21 Chemical Library” (Environmental Health Perspectives, 2019).
Where a name gives a salt, the structure may show the parent alone.

Assay: in vitro
Conditions: rat, gh3-tre-luc cells

| Structure (SMILES) | CC50 at 24 h (AC50 (uM) modified / 1000) [µM] | also measured |
| --- | --- | --- |
| CC(C)c1nnc2ccc(-c3ocnc3-c3cc(F)ccc3F)cn12 [CP-863187] | > 90 | – |
| NC(N)=NCCCCN=C(N)N [1,1'-Tetramethylenediguanidine sulfate] | > 50 | – |
| COc1cc(C=O)ccc1O [4-Hydroxy-3-methoxybenzaldehyde] | > 50 | – |
| O=C(Cl)c1ccc(F)c(Cl)c1 [3-Chloro-4-fluorobenzoyl chloride] | > 90 | – |
| C=COCC1CCC(COC=C)CC1 (stereo not drawn) [1,4-Bis[(ethenyloxy)methyl]cyclohexane] | > 90 | – |
| COC(COC(N)=O)C1=C(N2CC2)C(=O)C(C)=C(N2CC2)C1=O (stereo not drawn) [Carboquone] | 0.556 | – |
| COc1cc(OC)nc(NC(=O)NS(=O)(=O)c2ncccc2OCC(F)(F)F)n1 [Trifloxysulfuron-sodium] | – | CC50 at 24 h (AC50 (uM) modified / 1000, Tox21_110001=Tox21_301184, viability, 1 nM T3 present, 24 h): > 90 µM |
| CC=C(C)C#N [2-Methyl-2-butenenitrile] | > 90 | – |
| CCCCCCCCCCCCSC [1-(Methylsulfanyl)dodecane] | > 90 | – |
| CC(=O)C(C)C [3-Methyl-2-butanone] | > 100 | – |
| ClCCCCBr [1-Bromo-4-chlorobutane] | – | CC50 at 24 h (AC50 (uM) modified / 1000, Tox21_110001=Tox21_202866, viability, 1 nM T3 present, 24 h): > 90 µM |
| COc1ccc(O)cc1 [4-Methoxyphenol] | > 90 | – |
| OCCOCC#CCOCCO [1,4-Bis(2-hydroxyethoxy)-2-butyne] | > 90 | – |
| OC1CCC(C2CCCCC2)CC1 (stereo not drawn) [4-Cyclohexylcyclohexanol] | > 90 | – |
| Nc1ccc2c(O)cc(S(=O)(=O)O)cc2c1 [7-Amino-4-hydroxynaphthalene-2-sulfonic acid] | 89.3 | – |
| Cc1ccc2c(c1[N+](=O)[O-])C(=O)c1ccccc1C2=O [2-Methyl-1-nitroanthraquinone] | 38.7 | – |
| CNS(=O)(=O)CCc1ccc2[nH]cc(C3CCN(C)CC3)c2c1 [Naratriptan hydrochloride] | > 50 | – |
| O=C1c2c(O)ccc([N+](=O)[O-])c2C(=O)c2c([N+](=O)[O-])ccc(O)c21 [1,8-Dihydroxy-4,5-dinitroanthraquinone] | 8.27 | – |
| CCCCCCCCCCCCCCCCOP(=O)([O-])OCC[N+](C)(C)C [Miltefosine] | > 50 | – |
| N=c1nc(N2CCCCC2)cc(N)n1O [Minoxidil] | > 50 | – |
| CCN1C(=O)NC(c2ccccc2)C1=O (stereo not drawn) [Ethotoin] | > 20 | – |
| CC(C)(O)Cc1ccccc1 [2-Methyl-1-phenylpropan-2-ol] | > 90 | – |
| Cc1cc2nc3c(=O)[nH]c(=O)nc-3n(C[C@H](O)[C@H](O)[C@H](O)COP(=O)(O)OP(=O)(O)OC[C@H]3O[C@@H](n4cnc5c(N)ncnc54)[C@H](O)[C@@H]3O)c2cc1C [Flavin adenine dinucleotide disodium] | > 50 | – |
| NCCCC[C@H](NC(=O)[C@@H]1CCCN1C(=O)[C@@H]1CSSC[C@H](N)C(=O)N[C@@H](Cc2ccc(O)cc2)C(=O)N[C@@H](Cc2ccccc2)C(=O)N[C@@H](CCC(N)=O)C(=O)N[C@@H](CC(N)=O)C(=O)N1)C(=O)NCC(N)=O [Lypressin] | > 50 | – |

| Structure (SMILES) | CC50 at 24 h (AC50 (uM) modified / 1000) [µM] | also measured |
| --- | --- | --- |
| CCCCCCCCCCCC[N+](C)(C)C [Dodecyltrimethylammonium chloride] | 15.8 | – |
| N[C@@H]1C[C@H]1c1ccccc1 [Tranylcypromine hydrochloride] | > 50 | – |
| CCCCc1nc(Cl)c(CO)n1Cc1ccc(-c2ccccc2-c2nn[nH]n2)cc1 [Losartan] | > 50 | – |
| CC(C)(C)N(CCO)CCO [2,2'-(tert-Butylimino)diethanol] | > 90 | – |
| CC1=CC(=O)CCC1 [3-Methyl-2-cyclohexen-1-one] | > 90 | – |
| CC(=O)c1ccc2c(c1)Cc1ccccc1-2 [2-Acetylfluorene] | > 90 | – |
| O=[N+]([O-])c1cccc(S(=O)(=O)O)c1 [Sodium 3-nitrobenzenesulfonate] | > 90 | – |
| CCCC(c1cc(C(C)(C)C)c(O)cc1C)c1cc(C(C)(C)C)c(O)cc1C [4,4'-Butane-1,1-diylbis(2-tert-butyl-5-methylphenol)] | 3.97 | – |
| CCCCCCCCCC(C)C=O (stereo not drawn) [2-Methylundecanal] | > 90 | – |
| CC(CC(=O)O)CC(C)(C)C (stereo not drawn) [3,5,5-Trimethylhexanoic acid] | > 90 | – |
| C=CCSSSCC=C [Diallyl trisulfide] | > 50 | – |
| c1ccc(SCCSc2ccccc2)cc1 [1,2-Bis(phenylthio)ethane] | > 90 | – |
| C=CC(=O)OCCOCC(CC)(COCCOC(=O)C=C)COCCOC(=O)C=C [Trimethylolpropane ethoxylate triacrylate] | 23.1 | – |
| C=CC(=O)OCCCCO [4-Hydroxybutyl prop-2-enoate] | – | CC50 at 24 h (AC50 (uM) modified / 1000, Tox21_110001=Tox21_302651, viability, 1 nM T3 present, 24 h): 73.9 µM |
| C=Cc1ccccc1 [Styrene] | > 90 | – |
| CC1=C(/C=C/C(C)=C/C=C/C(C)=C/C(=O)Oc2c(C)c(C)c3c(c2C)CC[C@@](C)(CCC[C@H](C)CCC[C@H](C)CCCC(C)C)O3)C(C)(C)CCC1 [Tretinoin tocoferil] | > 50 | – |
| CCCCCCCCCCn1cc[n+](CCCCCCCCCC)c1C [1,3-Didecyl-2-methylimidazolium chloride] | 6.21 | – |
| C/C=C(/C(=C/C)c1ccc(O)cc1)c1ccc(O)cc1 [Dienestrol] | 16.1 | – |
| Cc1nc2n(c(=O)c1CCN1CCC(c3noc4cc(F)ccc34)CC1)CCCC2O (stereo not drawn) [Paliperidone] | > 50 | – |
| CCCCCCCC1CCCC1=O (stereo not drawn) [2-Heptylcyclopentanone] | > 90 | – |
| CNC(=NCCSCc1csc(N=C(N)N)n1)NC#N [Tiotidine] | > 50 | – |
| CC[C@]12CCCN3CCc4c(n(c5ccccc45)[C@@](O)(C(=O)OC)C1)[C@@H]32 [Vincamine] | 65.8 | – |
| O=C=Nc1cccc(C(F)(F)F)c1 [3-(Trifluoromethyl)phenyl isocyanate] | 49 | – |
| CCN(CC)C(C)CN1c2ccccc2Sc2ccccc21 (stereo not drawn) [Ethopropazine hydrochloride] | 10.7 | – |

| Structure (SMILES) | CC50 at 24 h (AC50 (uM) modified / 1000) [µM] | also measured |
| --- | --- | --- |
| CCC(C)SSC(C)CC (stereo not drawn) [Dibutan-2-yl disulfide] | > 90 | – |
| CO[Si](OC)(OC)c1ccccc1 [Trimethoxyphenylsilane] | > 90 | – |
| CCOCn1c(-c2ccc(Cl)cc2)c(C#N)c(Br)c1C(F)(F)F [Chlorfenapyr] | 2.15 | – |
| C=C(C)C(=O)OCC[N+](C)(C)C [(2-(Methacryloyloxy)ethyl)trimethylammonium chloride] | 62.4 | – |
| COC(=O)C(CN)c1c[nH]c2ccc(OC)cc12 (stereo not drawn) [Indorenate hydrochloride] | > 50 | – |
| CCCCC(C)(O)C/C=C/[C@H]1[C@H](O)CC(=O)[C@@H]1CCCCCCC(=O)OC (mixture of isomers) [Misoprostol] | > 50 | – |
| Cc1c(N)cccc1Cl [3-Chloro-2-methylaniline] | > 90 | – |
| CO/N=C(/C(=O)OC)c1ccccc1COc1ccccc1C [Kresoxim-methyl] | > 90 | – |
| C[C@H](CSC(=O)c1ccccc1)C(=O)N1C[C@@H](Sc2ccccc2)C[C@H]1C(=O)O [Zofenopril] | > 50 | – |
| CCCC[N+]1(C)CCCC1 [1-Butyl-1-methylpyrrolidinium hexafluorophosphate] | > 90 | – |
| N=C(N)NCc1cccc(I)c1 [3-Iodobenzylguanidine hemisulfate] | > 50 | – |
| CCCCCCCC/C=C\CCCCCCCCO [(9Z)-Octadec-9-en-1-ol] | > 90 | – |
| NCC(CC(=O)O)c1ccc(Cl)cc1 (stereo not drawn) [Baclofen] | > 50 | – |
| CC(=O)OCC(=O)[C@@]1(O)CC[C@H]2[C@@H]3CCC4=CC(=O)C=C[C@]4(C)[C@@]3(F)[C@@H](O)C[C@@]21C [Isoflupredone acetate] | > 20 | – |
| CCCCCCCC/C=C\CCCCCCCC(=O)N(CCO)CCO [(9Z)-N,N-Bis(2-hydroxyethyl)octadec-9-enamide] | 43.9 | – |
| Oc1ccccc1-c1ccccc1 [Sodium 2-phenylphenate tetrahydrate] | – | CC50 at 24 h (AC50 (uM) modified / 1000, Tox21_110001=Tox21_112097, viability, 1 nM T3 present, 24 h): > 50 µM |
| Cc1ncc(COP(=O)(O)O)c(CN)c1O [Pyridoxamine phosphate] | > 50 | – |
| O=C(Cl)c1cccc(C(=O)Cl)c1 [1,3-Benzenedicarbonyl dichloride] | > 90 | – |
| COc1ccccc1N1CCN(CCCCNC(=O)c2ccc(-c3ccc(C(C)=O)cc3)cc2)CC1 [GR 103691] | > 50 | – |
| C=CCNC(N)=S [Allylthiourea] | > 90 | – |
| Cc1cc(-c2ccc(/N=N/c3c(S(=O)(=O)O)cc4cc(S(=O)(=O)O)cc(N)c4c3O)c(C)c2)ccc1/N=N/c1c(S(=O)(=O)O)cc2cc(S(=O)(=O)O)cc(N)c2c1O [C.I. Direct Blue 14] | 22.8 | – |
| Nc1cc(Cl)c(N=C2NCCN2)c(Cl)c1 [Apraclonidine hydrochloride] | > 50 | – |
| O=c1nn[nH]c2ccccc12 [1,2,3-Benzotriazin-4(1H)-one] | > 90 | – |
| CCCCC#N [Valeronitrile] | > 90 | – |
